Assay [1] has as its system mouse fibroblast cell line NIH3T3. As to the kind of experiment: Anchoring of conjugates to cell membranes, observed by confocal laser scanning microscope. The conditions noted are these: for Anchoring to cell surface: Mouse fibroblasts NIH3T3, 37° C. for 5 min, confocal microscope, 1000 magnifications.
Method: Mouse fibroblasts NIH3T3 were cultured at 37° C. under 5% CO2 concentration using Dulbecco's Modified Eagle's Medium supplemented with 10% fetal calf serum and Glass bottom Microwell Dishes (35 mm dish, Uncoated, No. 0 Coverslip). The cells were cultured until the culture was approximately 80% confluent for 20 hours to 45 hours. […] The Glass bottom Microwell Dishes with NIH3T3 cells attached thereto were rinsed with 2 mL of phosphate buffered saline (the same as described above) which was subjected to filtration sterilization beforehand. Then, 0.1 mL of the polyethylene oxide oleylether-biotin conjugate solution was added to the NIH3T3 cells attached on the glass surface and a reaction was performed at 37° C. for 5 min. After the reaction, the cells were washed twice with 2 mL of phosphate buffered saline. Then, 0.1 mL of phosphate buffered saline containing 6.7 nM streptavidin and fluorescein conjugate (Molecular Probes; Cat# S-869) (hereinafter referred to as “fluorescein-labeled streptavidin”) was added to the cells, followed by incubation at 37° C. for 20 min.
The modification of the cell membranes was verified by observing the cells under a confocal laser scanning microscope (Leica).
Assay [2] deals with mouse myeloid cell line 32D. The assay is described as follows: Flow cytometer fluorescence intensity of treated suspended cells. Type of assay: cell-based. The conditions noted are these: 37° C. for 5 min. On the procedure:
(§1) Mouse hybridoma 9E10 was cultured at 37° C. under 5% CO2 concentration using RPMI 1640 media (“Nissui” powder, NISSUI PHARMACEUTICAL CO., LTD., Cat# 05918) supplemented with 10% fetal calf serum. […] 32D, Ba/F3 and 9E10 cells (hereinafter, generically called as “suspended cells”) were centrifuged to collect 1×10^6 cells. Each of the cell was centrifuged for washing with 13 mL of phosphate buffered saline. […] Then the cells were centrifuged for washing once with 13 mL of phosphate buffered saline, and then 1 mL of phosphate buffered saline was added to each cell pellet.
(§2) Respective treated cell suspensions were observed under a flow cytometer (Coulter, EPICS-C). […] Thus, it was verified that the polyethylene oxide oleylether-EGFP can be anchored to suspended cells.
A general note: A flow cytometer gives signals particle by particle.

A further assay has as its system mouse hybridoma 9E10. Described as above. Type of assay: cell-based. The conditions noted are these: 37° C. for 5 min. On the procedure: as §1, §2
For assay [3], the system named is mouse pro-B cell line Ba/F3. Described as above. The conditions noted are these: 37° C. for 5 min. Type of assay: cell-based. On the procedure:
as §1, §2

In assay [4] the test system is suspended cells (32D, Ba/F3 and 9E10 cells). As to the kind of experiment: Anchoring of EGFP conjugate to suspended cells, flow cytometer. Type of assay: cell-based, mouse. On the set-up: Anchoring to cell surface: key to the marks not given beside the values. On the procedure:
as §1, §2

The subject of assay [5] is Chinese hamster ovarian follicle cell line CHO. The assay is described as follows: Anchoring of EGFP conjugate to cell membranes, observed by confocal laser scanning microscope. Type of assay: cell-based. On the set-up: Anchoring to cell surface: key to the marks not given beside the values. From the text: Therefore, it was verified that the conjugate can be anchored to cells other than mouse cells.

The mark [6] stands for this setting: NIH3T3, confocal laser scanning microscope.

“Also recorded” adds a separate entry of the source. Some results are limits rather than exact numbers.

For the compound “Oleic Acid-biotin [Example 15, reference compound]”, the “Anchoring to cell surface” value in assay [1] is “−”. Besides, the “fluorescence on cell membranes / anchoring (result in words)” value in assay [1] (setting [6]) was “no fluorescence from fluorescein was observed”.
“Polyethylene Oxide Oleylether (n=90, Average Molecular Weight of 4400)-biotin Conjugate [Example 2]”: the “Anchoring to cell surface” value in assay [1] is recorded as “++”. Besides, the “time in which conjugates were anchored to all of the cell membranes” value in assay [1] (NIH3T3, 37° C.) is reported as not above 5 min. The “fluorescence on cell membranes / anchoring (result in words)” value in assay [1] (NIH3T3; confocal laser scanning microscope; average molecular weight of 4400)-biotin co) is on record as “fluorescence deriving from fluorescein was observed on the cell membranes of all of the cells in the field; also recorded: fluorescence from fluorescein was specifically observed only in the cell membranes”. The “binding of biotin to streptavidin after anchoring” value in assay [1] (NIH3T3, fluorescein-labeled streptavidin) is given as “not inhibited”.
With “Polyethylene Oxide Oleylether (n=15; Average Molecular Weight of 1100)-biotin Conjugates [Example 7]”, the “Anchoring to cell surface” value in assay [1] is “++”.
Regarding “Polyethylene Oxide Oleylether (n=90, Average Molecular Weight of 4400)-Green Fluorescent Protein EGFP Conjugate [Example 4]”, the “Anchoring to cell surface” value in assay [1] is listed as “++”; in assay [4] (Suspended cell) it was “++”; in assay [5] (Chinese hamster ovarian follicle cells CHO, confocal microscope), “++”. The “fluorescence on cell membranes / anchoring (result in words)” value in assay [1] (setting [6]) was “anchored to the cell membranes”. Moreover, the “relative value of fluorescence intensity of cells” value in assay [2] is listed as 30.1; with mouse hybridoma 9E10 it was 49.6; in assay [3], 36.7. In assay [4] (suspended cells, flow cytometer), the “fluorescence intensity of cells compared to cells treated only with EGFP (result in words)” value is “an increased number of the cells with a stronger fluorescence intensity was observed”. Besides, the “fluorescence from EGFP on cell membranes (result in words)” value in assay [5] (CHO cells, confocal laser scanning microscope) is given as “fluorescence from EGFP was observed on the cell membranes of all of the CHO cells”.
In the case of `NCCOCCOCCNC(=O)CCCC[C@@H]1SC[C@@H]2NC(=O)N[C@@H]21` [biotin-NH2, Biotin-PEO-Amine, reference compound], the “fluorescence on cell membranes / anchoring (result in words)” value in assay [1] (setting [6]) is listed as “no fluorescence from fluorescein was observed”.
With “Polyethylene Oxide Stearyl Ether (n=15: Average Molecular Weight of 1100)-biotin Conjugates [Example 10]”, in assay [1], the “Anchoring to cell surface” value is on record as “+”. Besides, in assay [1] (setting [6]), the “fluorescence on cell membranes / anchoring (result in words)” value is “fluorescence from fluorescein was observed on the cell membranes of the NIH3T3 cells”.
Take “Polyethylene Oxide Oleylether (n=180; Average Molecular Weight of 8400)-biotin Conjugates [Example 9]”: the “Anchoring to cell surface” value in assay [1] is “++”.
For “Polyethylene Oxide Oleylether (n=40; Average Molecular Weight of 2250)-biotin Conjugates [Example 8]”, in assay [1], the “Anchoring to cell surface” value was “++”.
As to “Amino Polyethylene Oxide Oleylether (n=90, Average Molecular Weight of 4400)-biotin Conjugate [Example 12]”, the “Anchoring to cell surface” value in assay [1] is given as “++”. Moreover, in assay [1] (setting [6]), the “fluorescence on cell membranes / anchoring (result in words)” value is “remain unchanged and still excellent”.
Turning to “polyethylene oxide oleylether succinate [reference compound]”, the “fluorescence on cell membranes / anchoring (result in words)” value in assay [1] (setting [6]) is given as “no fluorescence from fluorescein was observed”.
On to “Polyethylene Oxide Nonylphenyl Ether (n=40, Average Molecular Weight of 2160)-biotin Conjugate [Example 17, reference compound]”, for which the “Anchoring to cell surface” value in assay [1] is reported as “−”. In addition, in assay [1] (setting [6]), the “fluorescence on cell membranes / anchoring (result in words)” value is recorded as “no fluorescence from fluorescein was observed”.
Take “Fluorescent-Labeled (Fluorescein)-Polyethylene Oxide-Modified Dioleoyl Phosphatidyl Ethanolamine [Example 11]”: in assay [1], the “Anchoring to cell surface” value was “++”. The “fluorescence on cell membranes / anchoring (result in words)” value in assay [1] (setting [6]) was “Fluorescence from fluorescein was observed on the cell membranes of all the NIH3T3 cells”.
